Test results published in patent publication US10954201B2, “Two-electron donating phenothiazines and use thereof” (University of Kentucky Research Foundation, priority 2016, dated 2021).
Values after ≈ are worked out from the molar mass of the structure shown. Where two headings read alike, the source gives them in different places.

Assays:
[1] = Solubility in electrolyte formulations; type: physicochemical; conditions: for solubility compared to the N-ethyl derivative: while retaining stable redox chemistry
Excerpt: Additionally, in some embodiments, the N-substituted phenothiazine compounds described herein provide increased solubility in electrolyte formulations as compared to existing compounds, such as 2,5-di-tert-butyl-1,4-bis(2-methoxyethoxy)benzene (DBBB). In one embodiment, the glyme substituents provide increased solubility in electrolyte formulations as compared to other derivatives. […] In another embodiment, this solubility in organic solvents permits the use of renewable earth-abundant elements.
In some embodiments, the N-substituted phenothiazine compounds described herein provide a multi-electron donor including high stability and solubility in catholyte formulations. In another embodiment, the catholyte material provides a multi-electron donor that retains high chemical stability when charged. […] For example, when formulated at its solubility limit, diglyme-dimethoxyphenothiazine may provide approximately 5 times the volumetric energy of DBBB, which has an energy density of 10 Ah/L when formulated as a catholyte, and is limited by its solubility (0.4M) and redox chemistry, acting as a single electron donor.

[2] = Cyclic voltammetry, 10 mM analyte in 0.5M LiPF6 in PC (FIG. 1, Table 1); type: physicochemical; conditions: scan rate 100 mV/s
Experimental: FIG. 1 is a graph showing cyclic voltammograms of DMeOEPT, DMeOMEPT, and DMeOMEEPT, performed with 10 mM analyte in 0.5M LiPF6 in PC at a scan rate of 100 mV/s.

[3] = Oxidation potentials vs. ferrocenium/ferrocene in 0.5M TEATFSI/acetonitrile; type: physicochemical
Excerpt: With regard to Compound IV, oxidation potentials are 0.035 V and 0.625 V vs. ferrocenium/ferrocene in 0.5M TEATFSI/acetonitrile.

[4] = DBBB formulated as a catholyte; cited from earlier work

| SMILES | solubility [1] | 1st Eox vs. Li (half-wave first oxidation potential) [2] | 2nd Eox vs. Li (half-wave second oxidation potential) [2] | melting point | oxidation potential (first) vs. ferrocenium/ferrocene [3] | oxidation potential (second) vs. ferrocenium/ferrocene [3] | solubility compared to the N-ethyl derivative [1] | solubility [4] |
| --- | --- | --- | --- | --- | --- | --- | --- | --- |
| CCN1c2ccc(OCCOCCOC)cc2Sc2cc(OCCOCCOC)ccc21 [Compound IV] | – | – | – | – | 0.035 V | 0.625 V | – | – |
| COCCOc1cc(C(C)(C)C)c(OCCOC)cc1C(C)(C)C [DBBB, 2,5-di-tert-butyl-1,4-bis(2-methoxyethoxy)benzene] | – | – | – | – | – | – | – | 400 mM (≈ 135 mg/mL) |

Continued, in another order:

| solubility [1] | 1st Eox vs. Li (half-wave first oxidation potential) [2] | 2nd Eox vs. Li (half-wave second oxidation potential) [2] | melting point | oxidation potential (first) vs. ferrocenium/ferrocene [3] | oxidation potential (second) vs. ferrocenium/ferrocene [3] | solubility compared to the N-ethyl derivative [1] | SMILES | solubility [4] |
| --- | --- | --- | --- | --- | --- | --- | --- | --- |
| about 100 mM | 3.38 V | 3.94 V | 115 to 116 °C | – | – | – | CCN1c2ccc(OC)cc2Sc2cc(OC)ccc21 [Compound I, 3,7-dimethoxy-N-ethyl-phenothiazine] | – |
| – | 3.42 V | 3.96 V | 108 to 110 °C | – | – | higher solubility | COCCN1c2ccc(OC)cc2Sc2cc(OC)ccc21 [II, 3,7-dimethoxy-N-methoxyethyl-phenothiazine] | – |
| – | 3.41 V | 3.98 V | – | – | – | higher solubility | COCCOCCN1c2ccc(OC)cc2Sc2cc(OC)ccc21 [III, 3,7-dimethoxy-N-((2-methoxy)ethoxy)ethyl-phenothiazine] | – |
